Key:
E. coli ATCC 25922 = test: Checkerboard synergy with erythromycin; type: cell-based, Escherichia coli; settings: E. coli ATCC 25922
Procedure: The combined effect of compound 1 and CTX for E. coli SA/2, VAN for E. faecalis B3/101, COL for E. coli 2252, erythromycin for E. coli ATCC 25922, and OXA for S. aureus 66/1 was evaluated by the checkerboard method. […] The interaction between compound 1 and erythromycin was assessed for E. coli ATCC 25922. Gram-negative bacteria are intrinsically resistant to erythromycin, a macrolide that inhibits protein synthesis, and cannot penetrate the outer membrane of Gram-negative bacteria, which is impermeable to hydrophobic antibiotics. Ascertain ceragenins have been previously described to be able to enhance the efficacy of such antibiotics, this possibility was investigated for compound 1 and a FICI of 0.6 was obtained.

[1] = test system: Enterococcuss faecalis ATCC 29212; test: Kirby-Bauer disk diffusion; type: cell-based, Enterococcus faecalis; settings: 15 μg per disk
Procedure: (§1) An initial screening of the antibacterial activity of the compounds was performed by the Kirby-Bauer disk diffusion method, as recommended by the Clinical and Laboratory Standards Institute (CLSI). Briefly, sterile 6 mm blank paper disks (Oxoid, Basingstoke, England) impregnated with 15 μg of each compound were placed on inoculated MH agar plates. A blank disk with dimethylsulfoxide (DMSO) was used as a negative control. MH inoculated plates were incubated for 18-20 h at 37 degrees C. At the end of incubation, the inhibition halos where measured. The MIC was used to determine the antibacterial activity of each compound, in accordance with the recommendations of the CLSI. Two-fold serial dilutions of the compounds were prepared in Mueller-Hinton Broth 2 (MHB2—Sigma-Aldrich, St. Louis, MO, USA) within the concentration range of 0.062-64 μg/mL. CTX ranging between 0.031-16 μg/mL was used as a control. Sterility and growth controls were included in each assay. Purity checks and colony counts of the inoculum suspensions were also performed in order to ensure that the final inoculum density closely approximates the intended number (5×10^5 CFU/mL). The MIC was determined as the lowest concentration of compound that inhibited growth of the bacteria. The MBC was assessed by spreading 10 μL of culture collected from wells showing no visible growth on MH agar plates. […]

E. faecalis B3/101 (VRE) = test: Kirby-Bauer disk diffusion; type: cell-based, Enterococcus faecalis; settings: 15 μg per disk
Procedure: as §1

[2] = test system: Saprolegnia parasitica CBS 223.65; test: MIC/MLC broth microdilution in GY broth; type: cell-based
Procedure: The antifungal activity of compound 1 was evaluated for a wide range of fungal species, covering yeasts and filamentous fungi, including dermatophytes. […] This antimicrobial effect was fungicidal, with minimal lethal concentrations (MLC) being equal to, or one or two-fold higher than the respective MIC. Twenty-three fungal strains were used in this study, including reference strains and clinical isolates of yeasts and filamentous fungi. Yeast strains included reference strains (ATCC—American Type Culture Collection and CECT—Colección Española de Cultivos Tipo) and clinical isolates: C. albicans ATCC 10231, Candida krusei ATCC 6258, C. albicans H37, C. albicans FF172, C. albicans FF176, C. albicans DSY294, C. albicans DSY296, C. glabrata DSY562, C. glabrata DSY565 and Cryptococcus neoformans CECT 1078. […]
Each well was then inoculated with approximately 1 mm^2 of mycelium. […] After 5-7 days of incubation at 24° C., MIC was recorded as the lowest concentration that prevented obvious mycelial growth in comparison to the compound-free controls. […]

C. albicans ATCC 10231 = test: Propidium iodide influx assay (SYTO 9/PI); type: cell-based, Candida albicans; settings: 5 min
Procedure: Influx of PI in C. albicans ATCC 10231 treated with compound 1 was evaluated using a commercial kit, which includes fluorescent nucleic acid stains SYTO™ 9 and PI, and measurements were conducted in a fluorescence microplate reader. […] The ability of PI to penetrate cells with damaged membranes makes it suitable for studying the effect of drugs on cell membranes.
In order to assess membrane integrity by the PI influx assay, a commercial kit was used (LIVE/DEAD® BacLight™ Bacterial Viability Kit, for microscopy & quantitative assays, Invitrogen by Thermo Fisher Scientific, Waltham, MA, USA), which includes fluorescent nucleic acid stains SYTO® 9 and PI. Briefly, C. albicans ATCC 10231 colonies from overnight cultures in SDA were suspended in sterile saline and adjusted to 0.5 McFarland. This suspension was then diluted in RPMI (1:50 followed by 1:20) to achieve a final concentration of 0.5-2.5×10^3 CFU/mL and the tubes were incubated overnight at 36° C. in a water bath with shaking. The following day, the cell suspensions were centrifuged at 3500 rpm for 15 min, the supernatant was removed, and the cells were carefully resuspended in 2 mL of 0.85% NaCl (VWR International, Radnor, PA, USA) prepared in ultrapure water. An aliquot of this suspension was then added to each tube of 0.85% NaCl alone (control) or 0.85% NaCl plus an appropriate amount of test compound, in a 1:10 proportion. […] Fluorescence intensity of the stained yeast suspensions was obtained in a microplate reader (Synergy HT, BioTek Instruments) by two consecutive measurements: with excitation wavelength 485 nm and emission wavelength 528 nm (SYTO® 9) and with excitation wavelength 485 nm and emission wavelength 590 nm (PI). Data were analyzed by subtracting background fluorescence from each sample, dividing fluorescence intensity of SYTO® 9 by fluorescence intensity of PI, and are presented as a percentage of control. […]

S. aureus ATCC 29213 = test: Bacterial biofilm formation inhibition (crystal violet); type: cell-based, Staphylococcus aureus; settings: 2×MIC and MIC, 24 h
Procedure: In an embodiment, the antibiofilm activity of compound 1 was performed as follows. Given its bactericidal effect, the impact of compound 1 on the biofilm formation of reference strains was studied.
The effect of compound 1 on bacterial biofilm formation was evaluated through quantification of total biomass, using the crystal violet method, as previously described ([FIG. 6]). […] A control with an appropriate concentration of DMSO, as well as a negative control (TSB alone) was included. Sterile 96-well flat-bottomed untreated polystyrene microtiter plates were used. After a 24 h incubation at 37 degrees C., the biofilms were heat-fixed for 1 h at 60 degrees C. and stained with 0.5% (v/v) crystal violet (Quimica Clinica Aplicada, Amposta, Spain) for 5 min. The stain was resolubilized with 33% (v/v) acetic acid (Acetic acid 100%, AppliChem, Darmstadt, Germany) and the biofilm biomass was quantified by measuring the absorbance of each sample at 570 nm in a microplate reader (Thermo Scientific Multiskan® EX, Thermo Fisher Scientific, Waltham, MA, USA). The background absorbance (TSB or TSB+1% glucose without inoculum) was subtracted from the absorbance of each sample and the data are presented as a percentage of control. Three independent assays were performed for reference strains, with triplicates for each experimental condition.

C[C@H](CCC(=O)NCCN)[C@H]1CC[C@H]2[C@@H]3CC[C@@H]4C[C@H](O)CC[C@]4(C)[C@H]3C[C@H](O)[C@]12C [Compound 1, (R)—N-(2-aminoethyl)-4-((3R,5R,8R,9S,10S,12S,13R,14S,17R)-3,12-dihydroxy-10,13-dimethylhexadecahydro-1H-cyclopenta[a]phenanthren-17-yl) pentanamida]
combined effect with erythromycin (in words) (E. coli ATCC 25922; checkerboard): No synergistic interactions
fractional inhibitory concentration index (FICI) (E. coli ATCC 25922; with erythromycin): 0.6
Disk diffusion [1]: 13 mm
Disk diffusion (E. faecalis B3/101 (VRE)): 11 mm
MIC [2]: 32 to 64 µg/mL
MLC [2]: 32 to 64 µg/mL
influx of PI (C. albicans ATCC 10231; 32 μg/mL (½×MIC)): no evidence of influx of PI
reduction of SYTO 9/PI ratio vs untreated control (C. albicans ATCC 10231; 128 and 64 μg/mL (2×MIC and MIC)): significant
biofilm formation (in words) (S. aureus ATCC 29213): significantly inhibited
